Reference: ChEMBL document CHEMBL1201862, “PubChem BioAssay data set” (2004)
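Five compound concentrations were applied to cells in 96-well plates for 48 hours; endpoints were derived by simple linear interpolation of the resulting dose-response curve. GI50: concentration for 50% inhibition of growth.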 Active and inactive are the calls of the source. No stated cut-off is given here; in the data, active = GI50 up to about 1.1 µM and inactive = higher.

How the values were obtained:
Experiment in all cases: NCI-60 cell line screen, 48 h
K562 = tested on: K562
RPMI-8226 = tested on: RPMI-8226
UO-31 = tested on: UO-31
KM12 = tested on: KM12
M19-MEL = tested on: M19-MEL
HOP-62 = tested on: HOP-62
SF-539 = tested on: SF-539
OVCAR-3 = tested on: OVCAR-3
SN12C = tested on: SN12C
ACHN = tested on: ACHN
LOX IMVI = tested on: LOX IMVI
RXF 631 = tested on: RXF 631
HOP-18 = tested on: HOP-18
NCI-H226 = tested on: NCI-H226
OVCAR-5 = tested on: OVCAR-5
HCT-15 = tested on: HCT-15
Malme-3M = tested on: Malme-3M
SF-295 = tested on: SF-295
LXFL 529 = tested on: LXFL 529
A549 = tested on: A549
OVCAR-8 = tested on: OVCAR-8
COLO 205 = tested on: COLO 205
SW-620 = tested on: SW-620
UACC-257 = tested on: UACC-257
SK-MEL-28 = tested on: SK-MEL-28
NCI-H23 = tested on: NCI-H23
HOP-92 = tested on: HOP-92
KM-20L2 = tested on: KM-20L2
SNB-19 = tested on: SNB-19
UACC-62 = tested on: UACC-62
DMS-114 = tested on: DMS-114
TK-10 = tested on: TK-10
HL-60 = tested on: HL-60
MOLT-4 = tested on: MOLT-4
EKVX = tested on: EKVX
SNB-75 = tested on: SNB-75
SF-268 = tested on: SF-268
A498 = tested on: A498
HCC 2998 = tested on: HCC 2998
M14 = tested on: M14
HCT-116 = tested on: HCT-116
SR = tested on: SR
786-0 = tested on: 786-0
HT-29 = tested on: HT-29
CCRF-CEM = tested on: CCRF-CEM
NCI-H460 = tested on: NCI-H460
OVCAR-4 = tested on: OVCAR-4
SNB-78 = tested on: SNB-78
CAKI-1 = tested on: CAKI-1
RXF 393 = tested on: RXF 393
SK-MEL-5 = tested on: SK-MEL-5
IGROV-1 = tested on: IGROV-1
DLD-1 = tested on: DLD-1

SMILES: S=C1NC(c2ccccc2)=NC(Cc2ccccc2)(c2ccccc2)N1c1ccccc1 (stereo not drawn)
- GI50 (K562): > 100 µM (inactive)
- GI50 (RPMI-8226): > 100 µM (inactive)
- GI50 (UO-31): > 100 µM (inactive)
- GI50 (KM12): > 100 µM (inactive)
- GI50 (M19-MEL): > 100 µM (inactive)
- GI50 (HOP-62): 40.3 µM (inactive)
- GI50 (SF-539): > 100 µM (inactive)
- GI50 (OVCAR-3): > 100 µM (inactive)
- GI50 (SN12C): > 100 µM (inactive)
- GI50 (ACHN): 97.1 µM (inactive)
- GI50 (LOX IMVI): 96.6 µM (inactive)
- GI50 (RXF 631): > 100 µM (inactive)
- GI50 (HOP-18): 97.1 µM (inactive)
- GI50 (NCI-H226): > 100 µM (inactive)
- GI50 (OVCAR-5): > 100 µM (inactive)
- GI50 (HCT-15): > 100 µM
- GI50 (Malme-3M): > 100 µM (inactive)
- GI50 (SF-295): 37.9 µM (inactive)
- GI50 (LXFL 529): > 100 µM (inactive)
- GI50 (A549): 58.9 µM (inactive)
- GI50 (OVCAR-8): 41.4 µM (inactive)
- GI50 (COLO 205): > 100 µM (inactive)
- GI50 (SW-620): > 100 µM (inactive)
- GI50 (UACC-257): > 100 µM (inactive)
- GI50 (SK-MEL-28): > 100 µM (inactive)
- GI50 (NCI-H23): > 100 µM (inactive)
- GI50 (HOP-92): > 100 µM (inactive)
- GI50 (KM-20L2): > 100 µM (inactive)
- GI50 (SNB-19): 45.4 µM (inactive)
- GI50 (UACC-62): > 100 µM (inactive)
- GI50 (DMS-114): > 100 µM (inactive)
- GI50 (TK-10): > 100 µM (inactive)
- GI50 (HL-60): > 100 µM (inactive)
- GI50 (MOLT-4): > 100 µM (inactive)
- GI50 (EKVX): > 100 µM (inactive)
- GI50 (SNB-75): 19.7 µM (inactive)
- GI50 (SF-268): > 100 µM (inactive)
- GI50 (A498): > 100 µM (inactive)
- GI50 (HCC 2998): > 100 µM (inactive)
- GI50 (M14): > 100 µM (inactive)
- GI50 (HCT-116): > 100 µM (inactive)
- GI50 (SR): > 100 µM (inactive)
- GI50 (786-0): > 100 µM (inactive)
- GI50 (HT-29): > 100 µM (inactive)
- GI50 (CCRF-CEM): > 100 µM (inactive)
- GI50 (NCI-H460): > 100 µM (inactive)
- GI50 (OVCAR-4): 42.1 µM (inactive)
- GI50 (SNB-78): > 100 µM (inactive)
- GI50 (CAKI-1): > 100 µM (inactive)
- GI50 (RXF 393): 68.2 µM (inactive)
- GI50 (SK-MEL-5): > 100 µM (inactive)
- GI50 (IGROV-1): > 100 µM (inactive)
- GI50 (DLD-1): > 100 µM (inactive)
